Measured values published in patent US5952321A, “Substituted azetidinones as anti-inflammatory and antidegenerative agents” (Merck & Co., Inc., priority 1996, dated 1999).

What follows are compounds tested against T1, Human Polymorphonuclear Leukocyte Elastase (Homo sapiens, UniProt P08246) (assay: Inhibition of human polymorphonuclear leukocyte elastase via hydrolysis of Boc-AAPAN or Boc-AAPVN). Conditions: pH 7.5, Table I; second order rate constant for inactivation of the enzyme; read-out: Kobs /[I].
T1 sequence (P08246 30-267): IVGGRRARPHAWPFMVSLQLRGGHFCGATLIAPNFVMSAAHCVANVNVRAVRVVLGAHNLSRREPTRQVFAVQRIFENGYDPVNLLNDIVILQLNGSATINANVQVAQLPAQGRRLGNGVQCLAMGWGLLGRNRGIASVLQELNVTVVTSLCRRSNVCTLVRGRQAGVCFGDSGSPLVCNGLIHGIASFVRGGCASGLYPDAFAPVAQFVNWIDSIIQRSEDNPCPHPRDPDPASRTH
Type: biochemical
Experimental: Enzyme Assays for the Inhibition of Human Polymorphonuclear Leukocyte Elastase Via Hydrolysis of N-t-Boc-alanyl-alanyl-prolylalanine-p-nitroanilide (Boc-AAPAN) or […] (Boc-AAPVN) Reagent:
0.05M TES (N-tris[hydroxymethyl]methyl-2-amino-ethanesulfonic acid) Buffer, pH 7.5.
0.2 mM Boc-AAPAN or Boc-AAPVN.
To prepare substrate, the solid was first dissolved in 10.0 ml DMSO. Buffer at pH 7.5 was then added to a final volume of 100 ml.
Crude extract of human polymorphonuclear leukocytes (PMN) containing elastase activity.
Inhibitors (azetidinones) to be tested dissolved in DMSO just before use.
To 1.0 ml of 0.2 mM Boc-AAPAN in a cuvette, 0.01-0.1 ml of DMSO with or without inhibitor was added. After mixing, a measurement was taken at 410 mμ to detect any spontaneous hydrolysis due to presence of test compound. 0.05 Milliliters of PMN extract was then added and the ΔOD/min at 410 mμ was measured and recorded. Beckman model 35 spectrophotometer was used.
Results in Tables I to III were reported as ID50, effective dosage in micrograms per milliliter (μg/ml) for 50% inhibition of the enzyme activity 2 minutes after zero time.
Results were also expressed as Ki, the micromolar concentration of the inhibitor (μM) giving 50% of the control enzyme activity; or as ^k obs/I which is the second order rate constant in per mole per second for inactivation of the enzyme.
The elastase activity in the crude PMN extract may vary from one preparation to another. A control of each new batch is run, and the volume added in the assay procedure is adjusted according to activity.
`CCC[C@@H](NC(=O)N1C(=O)C(CC)(CC)[C@@H]1Oc1ccc(CN(CC)CCOC(=O)N(C)C)cc1)c1ccc(C)cc1` [R4=Et; R5=CH2 CH2 OCONMe2; R6=H] gave a kinact/KI of 1.4e+06 M⁻¹ s⁻¹.
`CCC[C@@H](NC(=O)N1C(=O)C(CC)(CC)[C@@H]1Oc1ccc(CN2CCN(C(=O)C(C)C)CC2)cc1)c1ccc(C)cc1` was tested, and the kinact/KI was 1.6e+06 M⁻¹ s⁻¹.
In the case of `CCC[C@@H](NC(=O)N1C(=O)C(CC)(CC)[C@@H]1Oc1ccc(CN2CCC[C@@H]2CO)cc1)c1ccc(C)cc1`, the kinact/KI is reported as 725000 M⁻¹ s⁻¹.
`CCC[C@@H](NC(=O)N1C(=O)C(CC)(CC)[C@@H]1Oc1ccc(Cn2ccnc2C)cc1)c1ccc(C)cc1` [R4+R5=--CHCHNCMe--; R6=H] gave a kinact/KI of 1.4e+06 M⁻¹ s⁻¹.
In the case of `CCC[C@@H](NC(=O)N1C(=O)C(CC)(CC)[C@@H]1Oc1ccc(C(C)N2CCC[C@H]2COC)cc1)c1ccc(C)cc1` (single isomer, unassigned) [R4+R5=--CH2 CH2 CH2 CH(S--CH2 OMe)--; R6=Me (isomer A)], the kinact/KI is reported as 960000 M⁻¹ s⁻¹.
In the case of `CCC[C@@H](NC(=O)N1C(=O)C(CC)(CC)[C@@H]1Oc1ccc(CN(C)CCCOC(=O)N(C)C)cc1)c1ccc(C)cc1` [R4=Me; R5=CH2 CH2 CH2 OCONMe2; R6=H], the kinact/KI is reported as 2.1e+06 M⁻¹ s⁻¹.
For `CCC[C@@H](NC(=O)N1C(=O)C(CC)(CC)[C@@H]1Oc1ccc(C(C)NCCOC)cc1)c1ccc(C)cc1` (stereo partly shown) [R4=H; R5=CH2 CH2 OMe; R6=Me], the kinact/KI was 680000 M⁻¹ s⁻¹.
`CCC[C@@H](NC(=O)N1C(=O)C(CC)(CC)[C@@H]1Oc1ccc(C(C)N2CCC(OC)C2)cc1)c1ccc(C)cc1` (stereo partly shown) [R4+R5=--CH2 CH2 CH(OMe)CH2 --; R6=Me] gave a kinact/KI of 1e+06 M⁻¹ s⁻¹.
`CCC[C@@H](NC(=O)N1C(=O)C(CC)(CC)[C@@H]1Oc1ccc(C(C)NCCO)cc1)c1ccc(C)cc1` (stereo partly shown) [R4=H; R5=CH2 CH2 OH; R6=Me] showed a kinact/KI of 660000 M⁻¹ s⁻¹.
Work on `CCC[C@@H](NC(=O)N1C(=O)C(CC)(CC)[C@@H]1Oc1ccc(CN(CC)CCNC(C)=O)cc1)c1ccc(C)cc1` [R4=Et; R5=CH2 CH2 NHAc; R6=H] yielded a kinact/KI of 850000 M⁻¹ s⁻¹.
With `CCC[C@@H](NC(=O)N1C(=O)C(CC)(CC)[C@@H]1Oc1ccc(CN(C)CCN(C)C)cc1)c1ccc(C)cc1` [R4=Me; R5=CH2 CH2 NMe2; R6=H] the kinact/KI was 850000 M⁻¹ s⁻¹.
Work on `CCC[C@@H](NC(=O)N1C(=O)C(CC)(CC)[C@@H]1Oc1ccc(CNC(=O)CN(C)C)cc1)c1ccc(C)cc1` [R4=H; R5=COCH2 NMe2; R6=H, (4S)-3,3-Diethyl-1-[(R)-α-(n-propyl)-4-(methyl)benzyl-aminocarbonyl]-4-[(4-((N,N-dimethyl)aminomethylcarbonyl)aminomethyl)phenoxy]azetidin-2-one] yielded a kinact/KI of 800000 M⁻¹ s⁻¹.
For `CCC[C@@H](NC(=O)N1C(=O)C(CC)(CC)[C@@H]1Oc1ccc(CN(C)Cc2ccccc2)cc1)c1ccc(C)cc1` [R4=Me; R5=Bn; R6=H], the kinact/KI was 400000 M⁻¹ s⁻¹.
With `CCC[C@@H](NC(=O)N1C(=O)C(CC)(CC)[C@@H]1Oc1ccc(CN(CC)C(C)COC)cc1)c1ccc(C)cc1` (stereo partly shown) [R4=Et; R5=CH(Me)CH2 OMe; R6=H] the kinact/KI was 670000 M⁻¹ s⁻¹.
`CCC[C@@H](NC(=O)N1C(=O)C(CC)(CC)[C@@H]1Oc1ccc(CN2CCN(C(C)C)CC2)cc1)c1ccc(C)cc1` [R4+R5=--CH2 CH2 N(i-Pr)CH2 CH2 --; R6=H] was tested, and the kinact/KI was 1.2e+06 M⁻¹ s⁻¹.
For `CCC[C@@H](NC(=O)N1C(=O)C(CC)(CC)[C@@H]1Oc1ccc(CN(C)CCOCCOC)cc1)c1ccc(C)cc1` [R4=Me; R5=CH2 CH2 OCH2 CH2 OMe; R6=H], the kinact/KI was 1.9e+06 M⁻¹ s⁻¹.
`CCC[C@@H](NC(=O)N1C(=O)C(CC)(CC)[C@@H]1Oc1ccc(CN(C)CCSCC)cc1)c1ccc(C)cc1` [R4=Me; R5=CH2 CH2 SEt; R6=H, (4S)-3,3-diethyl-1-[(R)-α-n-propyl-(4-methyl)benzylaminocarbonyl]-4-[(4-((2-thioethyl)ethyl)methylaminomethyl)phenoxy]azetidin-2-one] gave a kinact/KI of 1.05e+06 M⁻¹ s⁻¹.
`CCC[C@@H](NC(=O)N1C(=O)C(CC)(CC)[C@@H]1Oc1ccc(CN(C)C(C)C)cc1)c1ccc(C)cc1` [R4=Me; R5=i-Pr; R6=H] gave a kinact/KI of 850000 M⁻¹ s⁻¹.
For `CCC[C@@H](NC(=O)N1C(=O)C(CC)(CC)[C@@H]1Oc1ccc(CN2CCOCC2)cc1)c1ccc(C)cc1` [R4+R5=--CH2 CH2 OCH2 CH2 --; R6=H], the kinact/KI was 820000 M⁻¹ s⁻¹.
Work on `CCC[C@@H](NC(=O)N1C(=O)C(CC)(CC)[C@@H]1Oc1ccc(CN(C)CCOC)cc1)c1ccc(C)cc1` [R4=Me; R5=CH2 CH2 OMe; R6=H, (4S)-3,3-Diethyl-1-[(R)-α-n-propyl-(4-methyl)benzylaminocarbonyl]-4-[(4-(2-methoxyethyl)methylaminomethyl)phenoxyl]azetidin-2-one] yielded a kinact/KI of 440000 M⁻¹ s⁻¹.
`CCC[C@@H](NC(=O)N1C(=O)C(CC)(CC)[C@@H]1Oc1ccc(C(COC)N(C)CC)cc1)c1ccc(C)cc1` (mixture of isomers) [R4=Me; R5=Et; R6=CH2 OMe, 3,3-Diethyl-1-[(R)-α-(n-propyl)-4-(methyl)benzylaminocarbonyl]-4-(S)-[4-{1-(RS)-(N-ethyl-N-(methyl)amino)2-methoxyethyl}-phenoxy]azetidin-2-one] showed a kinact/KI of 1e+06 M⁻¹ s⁻¹.
Work on `CCC[C@@H](NC(=O)N1C(=O)C(CC)(CC)[C@@H]1Oc1ccc(CNC(=O)Cc2ccncc2)cc1)c1ccc(C)cc1` [R4=H; R5=COCH2-4-pyridyl; R6=H, (4S)-3,3-Diethyl-1-[(R)-α-(n-propyl)-4-(methyl)benzylaminocarbonyl]-4-[(4-((4-pyridyl)methylcarbonyl)aminomethyl)phenoxy]azetidin-2-one] yielded a kinact/KI of 1.7e+06 M⁻¹ s⁻¹.
Work on `CCC[C@@H](NC(=O)N1C(=O)C(CC)(CC)[C@@H]1Oc1ccc(C(CC)N(C)CCOC)cc1)c1ccc(C)cc1` (stereo partly shown) [R4=Me; R5=CH2 CH2 OMe; R6=Et] yielded a kinact/KI of 550000 M⁻¹ s⁻¹.
Compound `CCC[C@@H](NC(=O)N1C(=O)C(CC)(CC)[C@@H]1Oc1ccc(CN(C)CCOC(=O)N2CCOCC2)cc1)c1ccc(C)cc1` has a kinact/KI of 1.4e+06 M⁻¹ s⁻¹.
Work on `CCC[C@@H](NC(=O)N1C(=O)C(CC)(CC)[C@@H]1Oc1ccc(CN2CCN(c3ncccn3)CC2)cc1)c1ccc(C)cc1` yielded a kinact/KI of 715000 M⁻¹ s⁻¹.
For `CCC[C@@H](NC(=O)N1C(=O)C(CC)(CC)[C@@H]1Oc1ccc(CNC(=O)NC(C)C)cc1)c1ccc(C)cc1` [R4=H; R5=CONH isoPr; R6=H, (4S)-3,3-Diethyl-1-[(R)-α-(n-propyl)-4-(methyl)benzylaminocarbonyl]-4-[(4-((N-isopropyl)aminocarbonyl)aminomethyl)phenoxy]azetidin-2-one], the kinact/KI was 1.1e+06 M⁻¹ s⁻¹.
For `CCC[C@@H](NC(=O)N1C(=O)C(CC)(CC)[C@@H]1Oc1ccc(CN(C)CCCOC)cc1)c1ccc(C)cc1` [R4=Me; R5=CH2 CH2 CH2 OMe; R6=H], the kinact/KI was 1.5e+06 M⁻¹ s⁻¹.

Same assay, conditions: pH 7.5, Table II; second order rate constant for inactivation of the enzyme; read-out: Kobs /[I]
`CCC[C@@H](NC(=O)N1C(=O)C(CC)(CC)[C@@H]1Oc1ccc(CCN(C)Cc2ccccc2)cc1)c1ccc(C)cc1` [R4=Me; R5=Bn; n=2, (4S)-3,3-Diethyl-1-[(R)-α-n-propyl-(4-methyl)benzylaminocarbonyl]-4-[(4-(2-benzylmethylamino)ethyl)phenoxy]azetidin-2-one] was tested, and the kinact/KI was 1.32e+06 M⁻¹ s⁻¹.
`CCC[C@@H](NC(=O)N1C(=O)C(CC)(CC)[C@@H]1Oc1ccc(CCCN(CC)CC)cc1)c1ccc(C)cc1` [R4=Et; R5=Et; n=3] showed a kinact/KI of 540000 M⁻¹ s⁻¹.

Same assay, conditions: pH 7.5, Table III; second order rate constant for inactivation of the enzyme; read-out: Kobs /[I]
`CCC[C@@H](NC(=O)N1C(=O)C(CC)(CC)[C@@H]1Oc1ccc(CN(CC)C(C)COC)c(OC)c1)c1ccc(C)cc1` (stereo partly shown) showed a kinact/KI of 1.3e+06 M⁻¹ s⁻¹.
`CCC[C@@H](NC(=O)N1C(=O)C(CC)(CC)[C@@H]1Oc1ccc(C(COC)N(C)CCC)cc1)c1ccc2c(c1)OCO2` (mixture of isomers) [3,3-Diethyl-1-[(R)-α-(n-propyl)-(3,4-dioxomethylene)benzylaminocarbonyl]-4-(S)-[4-{1-(RS)-(N-(n-propyl)-N-(methyl)amino)-2-methoxyethyl}phenoxy]azetidin-2-one] was tested, and the kinact/KI was 1.8e+06 M⁻¹ s⁻¹.
`CCC[C@@H](NC(=O)N1C(=O)C(CC)(CC)[C@@H]1Oc1ccc(CN(CC)C(C)COC)cc1)c1ccc2c(c1)OCO2` (stereo partly shown) showed a kinact/KI of 1.6e+06 M⁻¹ s⁻¹.
With `CCC[C@@H](NC(=O)N1C(=O)C(CC)(CC)[C@@H]1Oc1ccc(C(COC)N(C)CC)cc1)c1ccc2c(c1)OCO2` (mixture of isomers) [3,3-Diethyl-1-[(R)-α-(n-propyl)-(3,4-dioxomethylene)benzylaminocarbonyl]-4-(S)-[4-{1-(RS)-(N-ethyl-N-(methyl)amino)-2-methoxyethyl}phenoxy]azetidin-2-one] the kinact/KI was 1.65e+06 M⁻¹ s⁻¹.
Work on `CCC[C@@H](NC(=O)N1C(=O)C(CC)(CC)[C@@H]1Oc1ccc(CN(CC)CCOC)cc1)c1ccc2occc2c1` yielded a kinact/KI of 1.1e+06 M⁻¹ s⁻¹.
`CCC[C@@H](NC(=O)N1C(=O)C(CC)(CC)[C@@H]1Oc1ccc(CN(C)C(C)COC)c(OC)c1)c1ccc(C)cc1` (stereo partly shown) gave a kinact/KI of 1.65e+06 M⁻¹ s⁻¹.
With `CCC[C@@H](NC(=O)N1C(=O)C(CC)(CC)[C@@H]1Oc1ccc(CN(CC)C(C)COC)c(C)c1)c1ccc(C)cc1` (stereo partly shown) the kinact/KI was 400000 M⁻¹ s⁻¹.
`CCC[C@@H](NC(=O)N1C(=O)C(CC)(CC)[C@@H]1Oc1ccc(CN(CCOC)CCOC)c(Cl)c1)c1ccc(C)cc1` was tested, and the kinact/KI was 1e+06 M⁻¹ s⁻¹.
